The text below walks through data of US20140287419A1, “Compositions Having Dicamba Decarboxylase Activity and Methods of Use” (priority 2013, published 2014).

The subject of data set [1] is Soybean seeds of a Pioneer elite germplasm. As to the kind of experiment: Soybean germination phytotoxicity test. The following applies: for soybean seed germination and growth: 16 days.
The test system of data set [2] is Arabidopsis ecotype Columbia (Col-O). As to the kind of experiment: Arabidopsis root growth inhibition assay. The following applies: 6 days. On the procedure:
Phytotoxicity of other major dicamba decarboxylated products was evaluated using Arabidopsis root growth inhibition assay. 4-chloro-3-methoxy phenol was purchased from Biogene Organics, Inc. (catalog number U06-642-79). 2,5-dichloro phenol was purchased from Sigma-Aldrich (catalog number D70007). Briefly, seeds of Arabidopsis ecotype Columbia (Col-O) were surface sterilized with 70% (v/v) ethanol for 5 minutes and 10% (v/v) bleach for 15 minutes. After being washed three times with distilled water, the seeds were germinated on 1× Murashige and Skoog (MS) medium with a pH of 5.7, 3% (w/v) sucrose, and 0.8% (w/v) agar. After incubation for 3.5 days, the seedlings were transferred to 1× MS medium containing B5 vitamin, 3% (w/v) sucrose, 1.2% (w/v) agar, and filter sterilized compounds was added to the media at 60° C. The concentrations of compounds including dicamba were 0 μM, 1.0 μM, and 10 μM. The seedlings were placed vertically, and the temperature maintained at 23° C. to allow root growth along the surface of the agar, with a photoperiod of 16 h of light and 8 h of dark.
After 6 days on media, root growth was evaluated. In wild type Arabidopsis, root growth inhibition is expected from auxin herbicide treatment.

Each structure is given as a SMILES string. “Also recorded” adds a separate entry of the source.

As to `COc1cc(Cl)ccc1Cl` [2,5-DCA, 2,5-dichloro anisole], the “soybean seed germination and growth” value in data set [1] (1 μM in germination media) was “seed germination and growth were normal”; in data set [1] (10 μM in germination media), “seed germination and growth were normal”; in data set [1] (100 μM in germination media), “did not have any obvious impact on soybean germination and growth”. Besides, in data set [1] (FIG. 2 legend, no concentration given), the soybean germination result is reported as “not affected”.
On to `Oc1cc(Cl)ccc1Cl` [2,5-dichloro phenol], for which the Arabidopsis root growth entry in data set [2] (1.0 uM in MS medium) and in data set [2] (10 uM in MS medium) was “not affected; also recorded: did not have any effect on the growth of Arabidopsis roots” throughout.
